Results published in patent US20150065509A1 (priority 2012, published 2015).
Converted amounts (≈) assume the structure as drawn. Like-named read-outs stand apart in the source and are kept apart here.

What was measured:
[1] = target: dihydrofolate reductase (DHFR) (Bacillus anthracis, UniProt Q81R22); experiment: biochemical; type: biochemical, B. anthracis Sterne
B. anthracis Sterne = experiment: microbe, parasite or virus in culture; type: cell-based; details: for MIC: Bacillus anthracis, 16 h, read-out: MIC (Minimum Inhibitory Concentration)

dihydrofolate reductase (DHFR), sequence (Q81R22 1-162): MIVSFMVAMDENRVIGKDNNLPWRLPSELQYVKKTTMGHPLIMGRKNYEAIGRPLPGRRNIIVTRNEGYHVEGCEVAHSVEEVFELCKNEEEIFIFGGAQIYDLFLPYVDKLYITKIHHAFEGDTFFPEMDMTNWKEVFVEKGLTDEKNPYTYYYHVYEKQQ

CCCC1c2ccccc2C=NN1C(=O)/C=C/c1cc(Cc2c(C)nc(N)nc2N)cc(OC)c1OC (centres unmarked) [Compound 10, (E)-3-(5-((2,4-Diamino-6-methylpyrimidin-5-yl)methyl)-2,3-dimethoxyphenyl)-1-(1-propyl-phthalazin-2(1H)-yl)prop-2-en-1-one]
IC50 [1]: 0.517 µM
MIC (B. anthracis Sterne): 8000 µg/mL (≈ 16 mM)
melting point: 137 to 138 °C

CCCC1c2ccccc2C=NN1C(=O)/C=C/c1cc(Cc2c(N)nc(N)nc2CC)cc(OC)c1OC (centres unmarked) [Compound 11, (E)-3-(5-((2,4-Diamino-6-ethylpyrimidin-5-yl)methyl)-2,3-dimethoxyphenyl)-1-(propyl-phthalazin-2(1H)-yl)prop-2-en-1-one]
IC50 ([1]; read-out: IC50): 17.4 µM
MIC (Minimum Inhibitory Concentration) (B. anthracis Sterne): 4 mg/mL (≈ 7.77 mM)

CCCc1nc(N)nc(N)c1Cc1cc(/C=C/C(=O)N2N=Cc3ccccc3C2CCC)c(OC)c(OC)c1 (centres unmarked) [Compound 12, (E)-3-(5-((2,4-Diamino-6-propylpyrimidin-5-yl)methyl)-2,3-dimethoxyphenyl)-1-(1-propyl-phthalazin-2(1H)-yl)prop-2-en-1-one]
IC50 [1]: 17.1 µM
MIC (B. anthracis Sterne): 1000 µg/mL (≈ 1.89 mM)
melting point: 140 to 141 °C

COc1cc(Cc2c(C)nc(N)nc2N)cc(/C=C/C(=O)N2N=Cc3ccccc3C2C=C(C)C)c1OC (centres unmarked) [Compound 13, (E)-3-(5-((2,4-Diamino-6-methylpyrimidin-5-yl)methyl)-2,3-dimethoxyphenyl)-1-(isobutenylphthalazin-2(1H)-yl)prop-2-en-1-one]
IC50 ([1]; read-out: IC50): 0.102 µM
MIC (Minimum Inhibitory Concentration) (B. anthracis Sterne): 4 mg/mL (≈ 7.8 mM)

CCc1nc(N)nc(N)c1Cc1cc(/C=C/C(=O)N2N=Cc3ccccc3C2C=C(C)C)c(OC)c(OC)c1 (centres unmarked) [Compound 14, (E)-3-(5-((2,4-Diamino-6-ethylpyrimidin-5-yl)methyl)-2,3-dimethoxyphenyl)-1-(isobutenylphthalazin-2(1H)-yl)prop-2-en-1-one]
IC50 ([1]; read-out: IC50): 0.181 µM
MIC (Minimum Inhibitory Concentration) (B. anthracis Sterne): 4 mg/mL (≈ 7.6 mM)

CCCc1nc(N)nc(N)c1Cc1cc(/C=C/C(=O)N2N=Cc3ccccc3C2C=C(C)C)c(OC)c(OC)c1 (centres unmarked) [Compound 15, (E)-3-(5-((2,4-Diamino-6-propylpyrimidin-5-yl)methyl)-2,3-dimethoxyphenyl)-1-(isobutenylphthalazin-2(1H)-yl)prop-2-en-1-one]
IC50 ([1]; read-out: IC50): 18 µM
MIC (Minimum Inhibitory Concentration) (B. anthracis Sterne): 2 mg/mL (≈ 3.7 mM)
